Source: PubChem BioAssay (NCI)
Values joined by “and” are separate entries in the source; they are usually repeats but may differ in a detail not shown here. Equal values may be shown once.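 How tested: cells in 96-well plates exposed to compound for 48 hours at five concentrations. GI50: concentration for 50% inhibition of growth. TGI: concentration producing complete growth inhibition.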

Key:
Assay in all cases: inhibition of tumour cell growth, NCI panel, 48 h
UACC-62 melanoma = tested on: UACC-62 melanoma
NCI-H23 lung = tested on: NCI-H23 lung
SNB-19 CNS = tested on: SNB-19 CNS
SNB-75 CNS = tested on: SNB-75 CNS
SK-OV-3 ovarian = tested on: SK-OV-3 ovarian
HOP-62 NSCLC = tested on: HOP-62 NSCLC
HCT-15 colon = tested on: HCT-15 colon
COLO 205 colon = tested on: COLO 205 colon
OVCAR-3 ovarian = tested on: OVCAR-3 ovarian
LOX IMVI melanoma = tested on: LOX IMVI melanoma

SMILES	TGI (UACC-62 melanoma) [µM]	TGI (NCI-H23 lung) [µM]	TGI (SNB-19 CNS)	TGI (SNB-75 CNS) [µM]	TGI (SK-OV-3 ovarian) [µM]	TGI (HOP-62 NSCLC) [µM]	TGI (HCT-15 colon)	TGI (COLO 205 colon) [µM]	TGI (OVCAR-3 ovarian) [µM]	TGI (LOX IMVI melanoma) [µM]	GI50 (UACC-62 melanoma) [µM]	GI50 (NCI-H23 lung) [µM]	GI50 (SNB-19 CNS) [µM]	GI50 (SNB-75 CNS) [µM]	GI50 (SK-OV-3 ovarian) [µM]	GI50 (HOP-62 NSCLC) [µM]	GI50 (HCT-15 colon) [µM]	GI50 (COLO 205 colon) [µM]	GI50 (OVCAR-3 ovarian) [µM]	GI50 (LOX IMVI melanoma) [µM]
Cc1cccc(Nc2cc(Cl)nc(SCC(=O)O)n2)c1C	> 100	> 100	> 100 µM	> 100	> 100	> 100	> 100 µM	> 100	> 100	> 100										
Cn1cncc1-c1c(F)cncc1NC(=O)c1c(N)nn2cc(F)cnc12	6.9	1.34	> 100 µM	48.6	8.92	> 100	> 100 µM	> 100	2.29	10.4	2.22	0.093	5.2	6.5	0.743	5.21	0.18	5.68	0.407	0.238
C/C(=N\NC(N)=S)c1sc(-n2nc(-c3ccccc3)cc2-c2ccccc2)nc1C	> 100	> 100	> 100 µM	> 100	> 100	> 100	> 100 µM	> 100	> 100	> 100										
C=C(CO)CC(/C=C(\C)CC/C=C(\C)CCl)OC(C)=O (centres undefined)	> 100	> 100	> 100 µM	> 100	> 100	> 100	> 100 µM	> 100	> 100	> 100										
COc1ccc2c(c1)CCc1c(CO)c(COC(=O)NC(C)C)n(C)c1-2	22.7	22.1	56.1 µM	> 27.3	73.3	75.6	60.8 µM	4.68	54.9	25.4										
S=C(CSc1ccccc1)Nc1cccc2ccccc12	> 100	> 100	> 100 µM	> 100	> 100	> 100	> 100 µM	32	88.7	> 100										
CCC[CH2][Sn]([CH2]CCC)([O]C(=O)c1cccc(F)c1F)[O]C(=O)c1cccc(F)c1F	2.46	1.89	2.8 µM	2.1	4.49	4.5	2.51 µM	2.13	2.68	1.74	1.22	0.614	1.48	0.874	2.41	2.94	1.25	0.962	1.37	0.519
COc1cc2c3c(c1OC)C(=O)C=C3N(S(=O)(=O)c1ccc(C)cc1)CC2	> 100	> 100	> 100 µM	> 100	> 100	> 100	> 100 µM	> 100	> 100	> 100										
Cn1cc(C2=C(c3ccccc3C(F)(F)F)C(=O)NC2=O)c2ccccc21	> 25	> 25	> 25 µM	> 25	> 25	> 25	> 25 µM	> 25	24.8	> 25	9.97	11.9	21	> 14	10.2	11.8	9.59	6.42	7.8	8.46
CNCCCNc1c2ccccc2nc2cccc([N+](=O)[O-])c12	0.00942	0.00564	0.0309 µM and 0.13 µM	0.0142	0.0427	0.0129	0.0207 µM and 0.0116 µM	0.00586	0.0149	0.016										
OC(COc1ccccc1)CN1CCCCC1 (centres undefined)	> 100	> 100	> 100 µM	> 100	> 100	> 100	> 100 µM	> 100	> 100	> 100										
CCC[CH2][Sn]([CH2]CCC)([CH2]CCC)[O]C(=O)C(OC)c1ccccc1 (centres undefined)	0.215	0.179	0.301 µM	0.513	0.246	0.27	0.211 µM	0.264	0.213	0.13	0.0913	0.0499	0.156	0.0824	0.122	0.135	0.0864	0.134	0.0845	0.0309
C[C@H](NC(=O)c1c(C(F)F)nn(C)c1Oc1cccc(C(F)(F)F)c1)c1ccc(C(=O)O)cc1	> 100	> 100	> 100 µM	> 100	> 100	> 100	> 100 µM	> 100	> 100	> 100	> 100	> 100	> 100	> 100	> 100	> 100	> 100	> 100	> 100	> 100
O=C(NCc1ccc2ccc3cccnc3c2n1)c1ccc[n+](Cc2ccccc2)c1	> 100	> 100	> 100 µM	> 100	> 100	> 100	> 100 µM	> 100	> 100	> 100										
COc1cc(Nc2ncnc(Nc3ccc4c(n3)NC(=O)C(C)(C)O4)n2)cc(OC)c1OC	> 100	> 100	> 100 µM	0.724		> 66.5	> 100 µM	> 100	> 100	> 100	2.36	2.59	9.78	0.169	0.929	0.555	1.7	0.829	3.46	0.633
